Experimental data taken from ChEMBL document CHEMBL1201862, “PubChem BioAssay data set” (2004).
Active and inactive are the calls of the source.

Key:
[1] = NIH-3T3 fibroblast cytotoxicity, dose response, cytotoxicity control, cell-based, fluorescence, Alamar Blue, secondary assay (AID 2327); assay type: functional;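 note: NIH-3T3 mouse fibroblasts cultured with fluconazole at 8 µg/mL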
INS1 = assay: beta cell apoptosis inhibitors, cytokine rescue, dose response, luminescence, retest (AID 449756); assay type: functional, cell-based; conditions: Rattus norvegicus;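 note: cell death triggered by IL-1 beta plus TNF-alpha plus IFN-gamma mixture; protective hits raise ATP signal compared with cytokine alone wells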
Melanocortin receptor 4 = Melanocortin receptor 4 (Homo sapiens, UniProt P32245); assay type: functional, cell-based;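 note: Cell-based assay with luminescence read-out, confirmatory dose-response testing for agonist activity of biased ligands at MC4R; human U2OS cells with tagged receptor and beta-arrestin; potency of agonists that increase receptor coupling to beta-arrestin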
[2] = target: T1, Microphthalmia-associated transcription factor (Homo sapiens, UniProt O75030); assay: TRPM1 promoter luciferase signal decrease, dose response, MITF inhibitor project, cell-based, SK-MEL-5, cherry-picked, set 3 (AID 493073); assay type: functional
T1 sequence (O75030 whole entry): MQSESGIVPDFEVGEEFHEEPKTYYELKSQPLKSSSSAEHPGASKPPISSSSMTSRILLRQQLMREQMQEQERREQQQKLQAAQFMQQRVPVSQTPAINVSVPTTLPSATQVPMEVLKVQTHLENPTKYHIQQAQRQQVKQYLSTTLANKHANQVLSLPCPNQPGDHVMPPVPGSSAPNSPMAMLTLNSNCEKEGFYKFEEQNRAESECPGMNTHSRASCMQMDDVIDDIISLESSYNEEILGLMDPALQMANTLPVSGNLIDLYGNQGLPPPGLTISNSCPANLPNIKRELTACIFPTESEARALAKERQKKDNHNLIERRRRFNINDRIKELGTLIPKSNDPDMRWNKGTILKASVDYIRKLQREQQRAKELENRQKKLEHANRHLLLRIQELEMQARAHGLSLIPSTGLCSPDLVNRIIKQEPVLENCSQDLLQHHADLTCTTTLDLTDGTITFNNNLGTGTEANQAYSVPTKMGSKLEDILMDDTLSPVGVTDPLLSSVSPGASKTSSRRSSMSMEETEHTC

[3] = C. albicans growth with fluconazole, confirmation, fluorescence, retest (AID 2467); assay type: functional, cell-based
[4] = target: DNA dC->dU-editing enzyme APOBEC-3G (Homo sapiens, UniProt Q9HC16); assay: Dose Response confirmation of small molecule APOBEC3G DNA Deaminase Inhibitors via a fluorescence-based single-stranded DNA deaminase assay. [Related pubchem assays (depositor defined):AID493012, AID493028]; assay type: functional
cells [5] = assay type: functional, cell-based
cells [6] = assay type: functional, cell-based; remark: listed apart in the source
CAAX prenyl protease 2 = target: T2, CAAX prenyl protease 2 (Saccharomyces cerevisiae S288c, UniProt Q03530); assay type: biochemical
T2 sequence (Q03530 whole entry): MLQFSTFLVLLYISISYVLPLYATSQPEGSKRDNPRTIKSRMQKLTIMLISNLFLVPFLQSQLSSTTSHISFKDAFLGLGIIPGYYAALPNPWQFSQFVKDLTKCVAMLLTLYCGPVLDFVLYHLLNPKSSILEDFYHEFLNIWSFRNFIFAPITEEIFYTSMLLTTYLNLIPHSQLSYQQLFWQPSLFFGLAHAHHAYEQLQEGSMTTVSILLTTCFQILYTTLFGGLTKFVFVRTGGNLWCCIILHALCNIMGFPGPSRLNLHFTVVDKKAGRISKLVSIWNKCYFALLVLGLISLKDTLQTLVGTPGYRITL

Prothrombin = Prothrombin (Bos taurus, UniProt P00735); assay: thrombin inhibition, dose response, biochemical, fluorescence polarization, uHTS hits (AID 602369); assay type: functional
[7] = target: 26S proteasome non-ATPase regulatory subunit 14 (Homo sapiens, UniProt O00487); assay: inhibition of proteasome subunit RPN11 – biochemical, fluorescence polarization, uHTS hits, confirmation (AID 602368); assay type: functional
[8] = target: 72 kDa type IV collagenase (Homo sapiens, UniProt P08253); assay: Dose Response validation of uHTS RPN11 inhibitor hits using a MMP-2 Fluorescence assay.; assay type: functional
[9] = HEp-2 cell cytotoxicity, dose response, cytotoxicity control for RSV inhibitor project, HTS (AID 2410); assay type: functional; conditions: human respiratory syncytial virus
[10] = target: T3, Endoribonuclease toxin MazF (Escherichia coli K-12, UniProt P0AE70); assay: MazF toxin RNase activators, dose response, biochemical, fluorescence, single-stranded RNA substrate, uHTS hits (AID 588481); assay type: functional
T3 sequence (P0AE70 whole entry): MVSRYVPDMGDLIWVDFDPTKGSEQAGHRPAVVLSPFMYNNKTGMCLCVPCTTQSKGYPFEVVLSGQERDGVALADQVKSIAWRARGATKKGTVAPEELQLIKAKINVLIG

[11] = target: T3, Endoribonuclease toxin MazF; assay: fluorescent RNA oligo signal without MazF, dose response, counter-screen for MazEF activator project, biochemical, fluorescence, single-stranded RNase substrate (AID 588502); assay type: functional
[12] = target: T4, Zinc finger protein mex-5 (Caenorhabditis elegans, UniProt Q9XUB2); assay: MEX-5/TCR-2 RNA interaction inhibitors, dose response, biochemical, C. elegans, fluorescence polarization (AID 1960)
T4 sequence (Q9XUB2 whole entry): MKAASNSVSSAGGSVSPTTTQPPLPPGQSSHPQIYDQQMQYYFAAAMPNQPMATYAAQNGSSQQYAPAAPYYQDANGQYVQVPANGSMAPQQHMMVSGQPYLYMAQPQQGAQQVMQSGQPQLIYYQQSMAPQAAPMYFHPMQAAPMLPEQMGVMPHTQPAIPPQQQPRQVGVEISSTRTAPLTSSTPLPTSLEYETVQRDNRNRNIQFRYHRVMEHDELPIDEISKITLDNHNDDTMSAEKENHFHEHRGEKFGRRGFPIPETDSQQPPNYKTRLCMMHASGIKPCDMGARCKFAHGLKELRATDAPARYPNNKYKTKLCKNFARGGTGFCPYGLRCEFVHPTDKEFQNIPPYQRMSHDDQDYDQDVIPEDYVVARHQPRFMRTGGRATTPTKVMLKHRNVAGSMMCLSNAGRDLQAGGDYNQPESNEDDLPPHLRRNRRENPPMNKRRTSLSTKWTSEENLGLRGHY

[13] = target: T5, RNA-binding protein pos-1 (Caenorhabditis elegans, UniProt G5EF15); assay: inhibitors of POS-1/mex-3 RNA binding, dose response, biochemical, fluorescence polarization (AID 1964);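 note: purified POS-1 fused to maltose binding protein made in E. coli; potency of compounds blocking POS-1 binding to fluorescent RNA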
T5 sequence (G5EF15 whole entry): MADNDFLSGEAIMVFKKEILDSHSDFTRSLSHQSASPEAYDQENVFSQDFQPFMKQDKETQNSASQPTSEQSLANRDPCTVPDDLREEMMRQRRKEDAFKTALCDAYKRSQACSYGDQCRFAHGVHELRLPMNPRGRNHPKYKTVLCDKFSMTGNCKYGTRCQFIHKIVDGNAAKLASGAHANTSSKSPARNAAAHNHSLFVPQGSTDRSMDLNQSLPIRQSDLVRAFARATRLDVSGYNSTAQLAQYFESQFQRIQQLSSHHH

[14] = target: T6, Mannose-6-phosphate isomerase (Homo sapiens, UniProt P34949); assay: human PMI inhibitors, high substrate, primary screen, biochemical, fluorescence intensity, high mannose 6-phosphate (AID 1220)
T6 sequence (P34949 whole entry): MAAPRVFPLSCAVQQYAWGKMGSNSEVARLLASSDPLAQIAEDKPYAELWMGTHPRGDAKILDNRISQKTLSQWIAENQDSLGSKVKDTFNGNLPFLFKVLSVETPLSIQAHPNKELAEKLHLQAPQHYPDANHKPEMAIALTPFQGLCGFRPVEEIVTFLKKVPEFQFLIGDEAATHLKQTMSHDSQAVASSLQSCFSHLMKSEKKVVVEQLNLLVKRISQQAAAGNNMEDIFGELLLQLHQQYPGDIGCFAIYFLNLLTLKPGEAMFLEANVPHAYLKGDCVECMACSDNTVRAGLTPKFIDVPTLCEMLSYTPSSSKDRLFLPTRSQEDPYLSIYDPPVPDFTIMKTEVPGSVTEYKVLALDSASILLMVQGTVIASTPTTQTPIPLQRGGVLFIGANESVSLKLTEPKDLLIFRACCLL

Chain of Melanocortin receptor 4 (P32245 whole entry): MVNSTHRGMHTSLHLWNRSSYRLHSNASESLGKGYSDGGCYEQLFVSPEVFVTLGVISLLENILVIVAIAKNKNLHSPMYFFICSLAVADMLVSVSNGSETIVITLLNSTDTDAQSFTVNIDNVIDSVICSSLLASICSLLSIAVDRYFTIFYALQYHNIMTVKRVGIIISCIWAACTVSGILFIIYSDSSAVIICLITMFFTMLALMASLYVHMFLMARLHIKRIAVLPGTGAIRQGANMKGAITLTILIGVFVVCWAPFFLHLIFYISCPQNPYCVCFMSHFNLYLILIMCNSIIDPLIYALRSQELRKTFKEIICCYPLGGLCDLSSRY
Chain of 26S proteasome non-ATPase regulatory subunit 14 (O00487 whole entry): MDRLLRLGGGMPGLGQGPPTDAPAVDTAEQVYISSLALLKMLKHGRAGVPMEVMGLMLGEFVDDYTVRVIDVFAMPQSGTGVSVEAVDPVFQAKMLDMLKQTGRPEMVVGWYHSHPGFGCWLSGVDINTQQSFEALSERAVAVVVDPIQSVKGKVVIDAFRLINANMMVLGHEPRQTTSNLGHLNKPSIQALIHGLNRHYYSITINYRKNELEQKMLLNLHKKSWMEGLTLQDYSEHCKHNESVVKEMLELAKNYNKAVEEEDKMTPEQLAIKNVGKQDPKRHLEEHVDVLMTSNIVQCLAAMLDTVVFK
Chain of 72 kDa type IV collagenase (P08253 whole entry): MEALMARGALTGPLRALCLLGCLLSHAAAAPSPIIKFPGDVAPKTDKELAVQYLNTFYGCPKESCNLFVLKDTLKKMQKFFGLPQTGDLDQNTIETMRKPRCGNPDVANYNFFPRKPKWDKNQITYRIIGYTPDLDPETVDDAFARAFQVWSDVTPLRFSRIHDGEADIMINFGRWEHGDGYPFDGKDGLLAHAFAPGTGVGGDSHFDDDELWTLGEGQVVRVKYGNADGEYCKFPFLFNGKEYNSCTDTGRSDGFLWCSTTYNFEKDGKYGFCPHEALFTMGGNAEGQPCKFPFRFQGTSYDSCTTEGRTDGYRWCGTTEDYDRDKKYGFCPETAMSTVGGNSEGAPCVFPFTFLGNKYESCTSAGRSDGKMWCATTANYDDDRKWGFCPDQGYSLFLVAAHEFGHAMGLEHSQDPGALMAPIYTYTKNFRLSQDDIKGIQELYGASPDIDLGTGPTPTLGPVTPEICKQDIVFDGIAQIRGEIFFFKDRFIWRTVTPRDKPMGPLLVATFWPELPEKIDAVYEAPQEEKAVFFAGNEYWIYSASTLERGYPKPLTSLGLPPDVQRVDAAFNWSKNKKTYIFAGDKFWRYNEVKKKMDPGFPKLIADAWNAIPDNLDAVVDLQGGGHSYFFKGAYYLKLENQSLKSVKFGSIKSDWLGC
Chain of DNA dC->dU-editing enzyme APOBEC-3G (Q9HC16 whole entry): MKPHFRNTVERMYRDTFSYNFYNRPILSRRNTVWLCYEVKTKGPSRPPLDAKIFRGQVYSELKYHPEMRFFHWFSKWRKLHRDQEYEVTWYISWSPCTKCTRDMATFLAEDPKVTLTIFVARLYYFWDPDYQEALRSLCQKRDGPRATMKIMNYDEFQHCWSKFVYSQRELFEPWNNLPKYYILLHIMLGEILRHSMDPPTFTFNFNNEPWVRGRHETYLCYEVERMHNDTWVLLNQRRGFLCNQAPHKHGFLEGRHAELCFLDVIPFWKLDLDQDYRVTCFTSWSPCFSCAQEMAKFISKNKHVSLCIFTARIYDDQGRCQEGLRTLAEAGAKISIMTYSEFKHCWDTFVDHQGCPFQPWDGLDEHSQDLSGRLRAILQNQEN

CC1CCC(C(C)C)C(OC(=O)C[n+]2cc(-c3ccc(Cl)cc3)n3c2CCCCC3)C1 (centres undefined)
EC50 [1]: > 160 µM (inactive)
AC50 (INS1): 4.91 µM (active)
EC50 (Melanocortin receptor 4): > 9.91 µM (active)
AC50 [2]: 6.97 µM (active)
EC50 [3]: 0.459 µM (active)

Cc1cc(C)c(C#N)c(=N)o1
IC50 [4]: 37.4 µM (active)

O=C(Nc1cccc(-c2cn3ccccc3n2)c1)C1CC1
EC50 (cells [5]): > 350 µM (not active)
EC50 (cells [6]): > 350 µM (not active)
AC50 (CAAX prenyl protease 2): 31.9 µM (active)

C1COCCO1.Cc1cc(C)c2nc(Nc3nc(O)cc(-c4ccccc4)n3)nc(C)c2c1
EC50 (Melanocortin receptor 4): > 89.2 µM (inactive)

CCOc1ccc(C(=O)CCC(=O)N2CCN(c3ncccn3)CC2)cc1
IC50 (Prothrombin): 34.3 µM (active)
IC50 [7]: 38.6 µM (active)
IC50 [8]: 83.5 µM (active)

COc1cccc(C(=O)Nc2nnc(SCC(=O)NC3CCCC3)s2)c1
AC50 (CAAX prenyl protease 2): 52.3 µM (active)

CCOC(=O)c1cc(-c2ccccc2)sc1NC(=O)C(C)Sc1nnnn1C (centres undefined)
CC50 [9]: > 50 µM (active)
AC50 (CAAX prenyl protease 2): 7.54 µM (active)

Oc1nc2ccccc2nc1/C=C/c1ccc(F)cc1
EC50 [10]: 15.6 µM (active)
EC50 [11]: > 99 µM (inactive)
EC50 [12]: > 300 µM (not active)
EC50 [13]: 41.9 µM (inconclusive)

O=C(c1ccc(COc2ccc(Br)cc2)o1)N1N=C(C(F)F)CC1(O)C(F)F (centres undefined)
EC50 (Melanocortin receptor 4): > 89.2 µM (inactive)

COCc1n[nH]c2c1C(c1cc(OC)c(O)c(OC)c1)C(C#N)=C(N)O2 (centres undefined)
EC50 [10]: > 99 µM (inactive)
EC50 [11]: > 99 µM (inactive)
IC50 [14]: > 50 µM (not active)
